Patent publication US8552002B2 (Novartis AG, priority 2004, dated 2013)

Legend:
[1] = target: T1, FGFR35 (Homo sapiens, UniProt P22607); assay: FGFR35 (cellular assay), proliferation of Ba/F3-TEL-FGFR35 cells; format: cell-based; parameters: fused on or other part: N-terminal part of TEL (ETV6), which acts as the oligomerising partner; it is fused to the part of FGFR3 that carries the kinase; P41212 (Transcription factor ETV6); settings: 48 hours, read-out: IC50 for the FGFR35 cellular assay
Method: Compounds of the invention are tested for their ability to inhibit transformed Ba/F3-TEL-FGFR35 cells proliferation, which is depended on FGFR35 cellular kinase activity. Ba/F3-TEL-FGFR35 are cultured up to 800,000 cells/mL in suspension, with RPMI 1640 supplemented with 10% fetal bovine serum as the culture medium. Cells are dispensed into 384-well format plate at 5000 cell/well in 50 μL culture medium. Compounds of the invention are dissolved and diluted in dimethylsulfoxide (DMSO). Twelve points 1:3 serial dilutions are made into DMSO to create concentrations gradient ranging typically from 10 mM to 0.05 μM. Cells are added with 50 nL of diluted compounds and incubated for 48 hours in cell culture incubator. AlamarBlue® (TREK Diagnostic Systems), which can be used to monitor the reducing environment created by proliferating cells, are added to cells at final concentration of 10%. After additional four hours of incubation in a 37° C. cell culture incubator, fluorescence signals from reduced AlamarBlue® (Excitation at 530 nm, Emission at 580 nm) are quantified on Analyst GT (Molecular Devices Corp.). IC50 values are calculated by linear regression analysis of the percentage inhibition of each compound at 12 concentrations.
Target sequence in this assay (P22607 472-761 limits assumed, change not shown): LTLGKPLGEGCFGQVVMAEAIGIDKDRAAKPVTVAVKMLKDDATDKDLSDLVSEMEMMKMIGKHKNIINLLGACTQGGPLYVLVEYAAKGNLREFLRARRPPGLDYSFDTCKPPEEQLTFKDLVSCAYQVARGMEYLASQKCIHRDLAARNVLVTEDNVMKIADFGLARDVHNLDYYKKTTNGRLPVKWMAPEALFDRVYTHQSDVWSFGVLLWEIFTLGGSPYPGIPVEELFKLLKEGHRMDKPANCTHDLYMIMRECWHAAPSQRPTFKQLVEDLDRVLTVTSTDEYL

[2] = target: T1, FGFR35; assay: FGFR35 (enzymatic assay), HTRF; format: biochemical; parameters: purchased Upstate; settings: purified FGFR35, 3 μM ATP; read-out: IC50 for the FGFR35 enzyme assay
Method: Kinase activity assay with purified FGFR35 (Upstate) is carried out in a final volume of 10 μL containing 0.25 μg/mL of enzyme in kinase buffer (30 mM Tris-HCl pH7.5, 15 mM MgCl2, 4.5 mM MnCl2, 15 μM Na3VO4 and 50 μg/mL BSA), and substrates (5 μg/mL biotin-poly-EY(Glu, Tyr) (CIS-US, Inc.) and 3 μM ATP). Two solutions are made: the first solution of 5 μl contains the FGFR35 enzyme in kinase buffer was first dispensed into 384—format ProxiPlate® (Perkin-Elmer) followed by adding 50 nL of compounds dissolved in DMSO, then 5 μl of second solution contains the substrate (poly-EY) and ATP in kinase buffer was added to each wells. The reactions are incubated at room temperature for one hour, stopped by adding 10 μL of HTRF detection mixture, which contains 30 mM Tris-HCl pH7.5, 0.5 M KF, 50 mM ETDA, 0.2 mg/mL BSA, 15 μg/mL streptavidin-XL665 (CIS-US, Inc.) and 150 ng/mL cryptate conjugated anti-phosphotyrosine antibody (CIS-US, Inc.). After one hour of room temperature incubation to allow for streptavidin-biotin interaction, time resolved florescent signals are read on Analyst GT (Molecular Devices Corp.). IC50 values are calculated by linear regression analysis of the percentage inhibition of each compound at 12 concentrations (1:3 dilution from 50 μM to 0.28 nM).
Target sequence in this assay (P22607 23-806): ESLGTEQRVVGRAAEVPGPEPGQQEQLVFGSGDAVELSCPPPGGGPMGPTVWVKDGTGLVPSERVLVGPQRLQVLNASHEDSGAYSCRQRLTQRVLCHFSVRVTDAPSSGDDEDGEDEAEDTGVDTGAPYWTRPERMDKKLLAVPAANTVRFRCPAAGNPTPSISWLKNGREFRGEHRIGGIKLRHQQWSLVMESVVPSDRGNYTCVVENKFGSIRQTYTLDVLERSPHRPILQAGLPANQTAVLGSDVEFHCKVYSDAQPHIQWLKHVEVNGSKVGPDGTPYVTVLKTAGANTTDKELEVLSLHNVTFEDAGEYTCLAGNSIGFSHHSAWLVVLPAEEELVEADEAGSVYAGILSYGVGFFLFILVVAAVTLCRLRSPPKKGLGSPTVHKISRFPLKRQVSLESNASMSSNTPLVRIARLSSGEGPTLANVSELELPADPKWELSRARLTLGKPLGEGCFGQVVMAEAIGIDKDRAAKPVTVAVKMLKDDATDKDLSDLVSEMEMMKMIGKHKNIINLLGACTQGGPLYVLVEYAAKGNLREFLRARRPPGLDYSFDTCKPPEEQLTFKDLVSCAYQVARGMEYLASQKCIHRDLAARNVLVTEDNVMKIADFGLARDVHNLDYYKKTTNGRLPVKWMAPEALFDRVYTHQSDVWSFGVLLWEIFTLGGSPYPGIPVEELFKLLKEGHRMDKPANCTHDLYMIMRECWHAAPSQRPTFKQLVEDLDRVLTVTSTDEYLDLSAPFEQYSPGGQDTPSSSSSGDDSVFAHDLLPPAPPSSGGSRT

`Cc1ccc(NC(=O)c2cccc(C(F)(F)F)c2)cc1NC(=O)N(CCCN1CCCC1=O)c1cc(N)ncn1` [Example 215, N-(3-{3-(6-Amino-pyrimidin-4-yl)-3-[3-(2-oxo-pyrrolidin-1-yl)-propyl]-ureido}-4-methyl-phenyl)-3-trifluoromethyl-benzamide] showed a GI50 [1] of 15 nM and an IC50 [2] of 16 nM.
